Data published in PMC4032190 (Journal of medicinal chemistry, 2014).
Values belong to the compound of their own block, whether it stands above or below them.

Legend:
XBP-1s expression [1] = experiment: Inhibition of XBP-1s expression in LPS-stimulated wild-type mouse B cells; assay type: cell-based; conditions: immunoblot
[2] = target: recombinant human IRE-1 (RNase activity) (Homo sapiens, UniProt O75460); experiment: In vitro IRE-1 RNase FRET-suppression assay; assay type: biochemical; conditions: up to 20 µM
Sequence of recombinant human IRE-1 (RNase activity) (O75460 547-977): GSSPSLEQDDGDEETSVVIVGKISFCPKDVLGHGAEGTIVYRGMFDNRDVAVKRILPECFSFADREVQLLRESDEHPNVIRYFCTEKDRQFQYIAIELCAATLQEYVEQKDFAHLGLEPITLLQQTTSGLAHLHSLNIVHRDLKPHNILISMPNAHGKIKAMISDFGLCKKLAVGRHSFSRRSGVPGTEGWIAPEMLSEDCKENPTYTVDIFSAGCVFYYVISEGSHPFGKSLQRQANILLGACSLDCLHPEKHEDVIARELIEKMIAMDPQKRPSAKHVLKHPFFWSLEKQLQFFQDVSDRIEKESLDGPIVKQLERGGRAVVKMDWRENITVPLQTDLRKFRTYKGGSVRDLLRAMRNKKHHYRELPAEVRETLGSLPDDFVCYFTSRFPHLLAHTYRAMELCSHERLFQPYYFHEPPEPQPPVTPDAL

[3] = Chemical stability in FRET-suppression assay buffer; conditions: rt, over 12 hours, LCMS
Mino cells = experiment: PARP cleavage; assay type: cell-based, human; conditions: 50 µM, 72 h, immunoblot
Jeko cells = experiment: PARP cleavage; assay type: cell-based, human; conditions: 50 µM, 72 h, immunoblot
XBP-1s expression [4] = experiment: Inhibition of XBP-1s expression in Mino cells; assay type: cell-based, human; conditions: 20 µM, 24 h, immunoblot
XBP-1s expression [5] = experiment: Inhibition of XBP-1s expression in Jeko cells; assay type: cell-based, human; conditions: 20 µM, 24 h, immunoblot

Structure (SMILES): O=Cc1c(O)ccc2ccccc12 [Compound 2]
inhibition of XBP-1s expression (XBP-1s expression [1]; 50 µM): strong inhibition

Structure (SMILES): Cc1cc(=O)oc2c(C=O)c(O)ccc12 [Compound 5]
inhibition of XBP-1s expression (XBP-1s expression [1]; 20 µM, 24 h): strong inhibition

IRE-1 RNase inhibition (in words) [2]: no appreciable inhibition
Structure (SMILES): NS(=O)(=O)c1cccs1 [Compound 8, reference compound]

decomposition of the 1,3-dioxane moiety [3]: no significant decomposition
Structure (SMILES): C=CCOC(=O)N1CCc2c(c(=O)oc3c(C4OCCCO4)c(O)ccc23)C1 [Compound 24, Allyl 7-(1,3-dioxan-2-yl)-8-hydroxy-5-oxo-4,5-dihydro-1H-chromeno[3,4-c]pyridine-3(2H)-carboxylate]

IRE-1 RNase inhibition (in words) [2]: complete loss of potency below 20 µM
Structure (SMILES): C=CCOC(=O)N1CCc2c(c(=O)oc3c(C=O)c(OCc4ccccc4)ccc23)C1 [Compound 27, Allyl 7-formyl-8-benzyloxy-5-oxo-4,5-dihydro-1H-chromeno[3,4-c]pyridine-3(2H)-carboxylate]

Structure (SMILES): CN1CCc2c(c(=O)oc3c(C=O)c(O)ccc23)C1 [Compound 30, 8-Hydroxy-3-methyl-5-oxo-2,3,4,5-tetrahydro-1H-chromeno[3,4-c]pyridine-7-carbaldehyde]
PARP cleavage (Mino cells): more strongly than either 21b or 5
PARP cleavage (Jeko cells): more strongly than either 21b or 5

Structure (SMILES): C=C(C)CN1CCc2c(c(=O)oc3c(C=O)c(O)ccc23)C1 [Compound 33, 8-Hydroxy-3-(2-methylallyl)-5-oxo-2,3,4,5-tetrahydro-1H-chromeno[3,4-c]pyridine-7-carbaldehyde]
suppression of XBP-1s expression (XBP-1s expression [4]): significant activity
suppression of XBP-1s expression (XBP-1s expression [5]): significant activity
